Results reported in US12410179B2, “Modulators of TNF alpha activity and uses thereof” (RayThera, Inc., priority 2023, dated 2025).
Read-outs that look alike come from different tables or passages of the source.

Target: TNFα (Homo sapiens, UniProt P01375)
Assay: HEK-Blue hTNFα reporter assay
Format: cell-based
Parameters: purchased R&D biosystem (R&D Systems) 210-TA-020/CF
Conditions: HEK-Blue hTNFα reporter cells
Description: Stimulation of HEK293 cells by TNFα leads to activation of the NF-κB pathway. The potency of compounds was examined in HEK-Blue™ hTNFα reporter cells (Invivogen, Cat #hkb-tnfdmyd). HEK-Blue™ TNFα cells were generated by stable transfection of HEK293 cell line with a SEAP reporter gene under the control of the […] minimal promoter fused to NF-κB binding sites. Stimulation of HEK-Blue™ TNFα cells with TNFα triggers the activation of the NF-κB-inducible promoter and the production of SEAP. Levels of SEAP in the supernatant can be easily determined using QUANTI-Blue™ Solution (Invivogen, cat #rep-qbs) by reading the OD at 620-655 nm.
HEK-Blue™ TNFα cells were cultured in DMEM supplemented with 10% FBS, 100p/mL penicillin, 100 μg/mL streptomycin, 100 μg/mL normocin, 1 μg/mL puromycin, and 100 μg/mL zeocin. The culture was maintained in culture incubator with 5% CO2 at 37° C. When used for assay, the cells were gently rinsed twice with pre-warmed phosphate buffered saline (PBS) and detached in presence of PBS by tapping the flask or by using a cell scraper. The cells were spun to remove PBS and resuspended in fresh, pre-warmed test medium (DMEM supplemented with 10% FBS, 100p/mL penicillin, and 100 μg/mL streptomycin). A serial dilution of work solution of tested compound was made in DMSO with 1000× of final concentration, and 40 nL of compound DMSO solution was transferred into 384-well plates (Corning 3764) by Echo, and incubated with 10 μL of recombinant hTNFα (R&D biosystem, Cat #210-TA-020/CF) for 1 h at 37° C. The compound/hTNFα mixture well received 30 μL HEK-Blue™ TNFα cell suspension at 10000 cells/well, and then incubated at 37° C. with 5% CO2 for 24 h. The final concentration of hTNFα is […]. After incubation, 5 μL of induced cell supernatant was transferred to a new 384-well plate well (Coring 3764) to mix with 45 μL of QUANTI-Blue Solution. After 1 h incubation at 37° C., the plate was read using a spectrophotometer at 620 nm.
The percentage of inhibition was calculated by the following formula: % inhibition=(positive control−Sample)/(positive control−negative control)*100 • Positive control: OD620 reading of cells with hTNFα stimulation. • Negative control: OD620 reading of cells without hTNFα stimulation. • Sample: OD620 reading of cells with compound at specific concentration and hTNFα stimulation
The % inhibition was plotted against compound concentration in logarithmic scale and the IC50 was rendered using 4-parameter nonlinear regression (GraphPad Prism).

[1] = SEAP readout, read-out: IC50 Range

TNFα, sequence (P01375 77-233 limits assumed): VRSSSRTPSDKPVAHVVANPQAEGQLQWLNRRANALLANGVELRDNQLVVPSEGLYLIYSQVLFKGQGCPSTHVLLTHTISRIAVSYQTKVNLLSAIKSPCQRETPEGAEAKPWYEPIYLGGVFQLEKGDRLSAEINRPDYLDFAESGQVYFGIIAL

| IC50 [1] [nM] | Emax (read-out: TNFα reporter, Emax) [%] | IC50 (read-out: TNFα reporter, IC50) [nM] | Compound |
| --- | --- | --- | --- |
| < 25 |  |  | [2H]C([2H])([2H])N1C(=O)c2cccc(OC(F)F)c2[C@H]2C[C@@H]1c1nn3ccc(-c4cnc(N5CC(C)(N)C5)nc4)cc3c12 [Example 291] |
| < 25 |  |  | C[C@]1(O)C[C@](N)(c2ncc(-c3ccn4nc5c(c4c3)[C@@H]3C[C@H]5NC(=O)c4ccc(F)c(OC(F)F)c43)cn2)C1 [Example 229] |
| < 25 |  |  | NC1(c2ncc(-c3ccn4nc5c(c4c3)[C@@H]3C[C@H]5NC(=O)c4cccc(OC(F)F)c43)cn2)CCC1 [Example 184] |
| < 25 |  |  | CN1C(=O)c2cccc(OC(F)F)c2[C@H]2C[C@@H]1c1nn3cc(F)c(-c4cnc([C@]5(N)C[C@@](C)(C#N)C5)nc4)nc3c12 [Example 51] |
| < 25 |  |  | CN1C(=O)c2cccc(OC(F)F)c2[C@H]2C[C@@H]1c1nn3cc(F)c(-c4cnc([C@]5(O)C[C@@](C)(O)C5)nc4)cc3c12 [Example 109] |
| < 25 |  |  | CN1C(=O)c2cccc(OC(F)F)c2[C@H]2C[C@@H]1c1nn3ccc(-c4cnc([C@@]5(O)CCOC5)nc4)cc3c12 [Example 64] |
| < 25 |  |  | CN1C(=O)c2cccc(OC(F)F)c2[C@H]2C[C@@H]1c1nn3ccc([C@H]4CC[C@@H](OC[C@@H](O)CO)CC4)cc3c12 [Example 316, (7R,14S)-1-(difluoromethoxy)-12-((1R,4R)-4-((S)-2,3-dihydroxypropoxy)cyclohexyl)-6-methyl-6,7-dihydro-7,14-methanobenzo[c]pyrido[1′,2′:1,5]pyrazolo[4,3-f]azocin-5 (14H)-one] |
| < 25 |  |  | [2H]C([2H])([2H])N1C(=O)c2cccc(OC(F)F)c2[C@H]2C[C@@H]1c1nn3ccc(-c4cnc(C(C)(C)N)nc4)cc3c12 [Example 254] |
| < 25 |  |  | CN1C(=O)c2cccc(OC(F)F)c2[C@H]2C[C@@H]1c1nn3ccc(-c4cnc([C@]5(O)C[C@@](C)(O)C5)nc4)nc3c12 [Example 16] |
| < 25 |  |  | CN1C(=O)c2cccc(OC(F)F)c2[C@H]2C[C@@H]1c1nn3ccc(-c4cnc([C@@](C)(O)C5COC5)nc4)cc3c12 [Example 85] |
| < 25 |  |  | CN1C(=O)c2cccc(OC(F)F)c2[C@H]2C[C@@H]1c1nn3cc(F)c(-c4cnc([C@](C)(O)CO)nc4)cc3c12 [Example 114] |
| < 25 |  |  | [2H]C([2H])([2H])N1C(=O)c2cccc(OC(F)F)c2[C@H]2C[C@@H]1c1nn3cc(F)c(-c4cnc(C(C)(C)N)nc4)nc3c12 [Example 287] |
| < 25 |  |  | [2H]C([2H])([2H])N1C(=O)c2cccc(OC(F)F)c2[C@H]2C[C@@H]1c1nn3ccc(-c4cnc([C@]5(N)C[C@@](C)(O)C5)cn4)cc3c12 [Example 209] |
| < 25 |  |  | CN1C(=O)c2cccc(OC(F)F)c2[C@H]2C[C@@H]1c1nn3ccc(-c4cnc(C5(O)COC5)nc4)cc3c12 [Example 77] |
| < 25 |  |  | [2H]C([2H])([2H])N1C(=O)c2cccc(C#N)c2[C@H]2C[C@@H]1c1nn3cc(F)c(-c4cnc([C@]5(N)C[C@@](C)(C#N)C5)nc4)cc3c12 [Example 312] |
| < 25 |  |  | [2H]C([2H])([2H])N1C(=O)c2cccc(OC(F)F)c2[C@H]2C[C@@H]1c1nn3cnc(-c4cnc([C@]5(N)C[C@@](C)(O)C5)nc4C)cc3c12 [Example 263] |
| < 25 |  |  | [2H]C([2H])([2H])N1C(=O)c2cccc(OC(F)F)c2[C@H]2C[C@@H]1c1nn3cc(F)c(-c4cnc([C@]5(N)C[C@@](C)(CO)C5)nc4)nc3c12 [Example 274] |
| < 25 |  |  | CN1C(=O)c2cccc(OC(F)F)c2[C@H]2C[C@@H]1c1nn3cc(F)c(-c4cnc(P(C)(C)=O)c(F)c4)cc3c12 [Example 39] |

| IC50 [1] [nM] | Emax (read-out: TNFα reporter, Emax) [%] | IC50 (read-out: TNFα reporter, IC50) [nM] | Compound |
| --- | --- | --- | --- |
| 25 to 100 |  |  | NC1(c2ccc(-c3ccn4nc5c(c4n3)[C@@H]3C[C@H]5NC(=O)c4cccc(OC(F)F)c43)cn2)CCC1 [Example 186] |
| < 25 |  |  | [2H]C([2H])([2H])N1C(=O)c2cccc(OC(F)F)c2[C@H]2C[C@@H]1c1nn3cc(F)c(-c4cnc([C@]5(N)C[C@@H](O)C5)c(F)c4)nc3c12 [Example 225] |
| < 25 |  |  | C[C@]1(C#N)C[C@](N)(c2ncc(-c3ccn4nc5c(c4n3)[C@@H]3C[C@H]5NC(=O)c4cccc(OC(F)F)c43)cn2)C1 [Example 60] |
| < 25 |  |  | [2H]C([2H])([2H])N1C(=O)c2cccc(OC(F)F)c2[C@H]2C[C@@H]1c1nn3ccc(-c4cnc(C5(N)CCC5)nc4C)nc3c12 [Example 242] |
| < 25 |  |  | CN1C(=O)c2cccc(C(F)F)c2[C@H]2C[C@@H]1c1nn3ccc(-c4cnc(C5(N)CCC5)nc4)cc3c12 [Example 299] |
| < 25 |  |  | CN1C(=O)c2cccc(OC(F)F)c2[C@H]2C[C@@H]1c1nn3ccc(-c4ccc(P(C)(C)=O)nn4)cc3c12 [Example 100] |
| < 25 |  |  | CN1C(=O)c2cccc(OC(F)F)c2[C@H]2C[C@@H]1c1nn3ccc(-c4cnc(N5CCC(O)CC5)nc4)cc3c12 [Example 156] |
| < 25 |  |  | CN1C(=O)c2cccc(OC(F)F)c2[C@H]2C[C@@H]1c1nn3ccc(C4=CCC(C(C)(C)O)OC4)cc3c12 (stereo in doubt) [Example 319, (7R,14S)-1-(difluoromethoxy)-12-((S)-6-(2-hydroxypropan-2-yl)-5,6-dihydro-2H-pyran-3-yl)-6-methyl-6,7-dihydro-7,14-methanobenzo[c]pyrido[1′,2′:1,5]pyrazolo[4,3-f]azocin-5 (14H)-one] |
| < 25 |  |  | O=C1N[C@@H]2C[C@H](c3c(OC(F)F)cccc31)c1c2nn2ccc(C3=CCN(C(=O)O[C@H]4C[C@@H](O)C4)CC3)cc12 [Example 283] |
| 25 to 100 |  |  | [2H]C([2H])([2H])N1C(=O)c2cccc(OC(F)F)c2[C@H]2C[C@@H]1c1nn3cnc(-c4cnc([C@]5(O)C[C@@](C)(N)C5)nc4)cc3c12 [Example 261] |
| < 25 |  |  | CN1C(=O)c2cccc(OC(F)F)c2[C@H]2C[C@@H]1c1nn3ccc(-c4cnc(N5CCN(CCO)CC5)nc4)cc3c12 [Example 145] |
| < 25 |  |  | CP(C)(=O)c1ccc(-c2ccn3nc4c(c3c2)[C@@H]2C[C@H]4NC(=O)c3cccc(OC(F)F)c32)cc1F [Example 127] |
| < 25 |  |  | CN1C(=O)c2cccc(OC(F)F)c2[C@H]2C[C@@H]1c1nn3ccc(-c4cnc([C@@](C)(O)CC#N)nc4)cc3c12 [Example 76] |
| < 25 |  |  | [2H]C([2H])([2H])N1C(=O)c2cccc(OC(F)F)c2[C@H]2C[C@@H]1c1nn3ccc(-c4cnc([C@]5(N)C[C@@](C)(C#N)C5)cn4)cc3c12 [Example 210] |
| < 25 |  |  | CN1C(=O)c2cccc(OC(F)F)c2[C@H]2C[C@@H]1c1nn3ccc(-c4cnc([C@]5(N)C[C@@](C)(O)C5)c(F)c4)cc3c12 [Example 40] |
| 25 to 100 |  |  | CN1C(=O)c2cccc(OC(F)F)c2C2CC1c1nn3ccc(-c4cnc(C5(N)CCC5)nc4)nc3c12 (stereo not shown) [Example 1, 12-(2-(1-aminocyclobutyl)pyrimidin-5-yl)-1-(difluoromethoxy)-6-methyl-6,7-dihydro-7,14-methanobenzo[c]pyrimido[1′,2′:1,5]pyrazolo[4,3-f]azocin-5 (14H)-one] |
| < 25 | 93 | 12.7 | CN1C(=O)c2cccc(OC(F)F)c2[C@H]2C[C@@H]1c1nn3ccc(-c4cnc([C@]5(N)C[C@@](C)(CO)C5)nc4)nc3c12 [Example 10, (7R,14S)-12-(2-((1s,3R)-1-amino-3-(hydroxymethyl)-3-methylcyclobutyl)pyrimidin-5-yl)-1-(difluoromethoxy)-6-methyl-6,7-dihydro-7,14-methanobenzo[c]pyrimido[1′,2′:1,5]pyrazolo[4,3-f]azocin-5 (14H)-one] |
